According to ChEMBL document CHEMBL4725338, “Discovery of novel histone lysine methyltransferase G9a/GLP (EHMT2/1) inhibitors: Design, synthesis, and structure-activity relationships of 2,4-diamino-6-methylpyrimidines” (Bioorg Med Chem Lett, 2020):
≈ marks a conversion by molar mass, not a printed value. Calls of active or inactive are those of the source. The rule behind the calls is not given here.

Assays:
[1] = target: T1, Histone-lysine N-methyltransferase EHMT1 (Homo sapiens, UniProt Q9H9B1); assay: Inhibition of GLP (unknown origin)
T1 sequence (Q9H9B1 whole entry): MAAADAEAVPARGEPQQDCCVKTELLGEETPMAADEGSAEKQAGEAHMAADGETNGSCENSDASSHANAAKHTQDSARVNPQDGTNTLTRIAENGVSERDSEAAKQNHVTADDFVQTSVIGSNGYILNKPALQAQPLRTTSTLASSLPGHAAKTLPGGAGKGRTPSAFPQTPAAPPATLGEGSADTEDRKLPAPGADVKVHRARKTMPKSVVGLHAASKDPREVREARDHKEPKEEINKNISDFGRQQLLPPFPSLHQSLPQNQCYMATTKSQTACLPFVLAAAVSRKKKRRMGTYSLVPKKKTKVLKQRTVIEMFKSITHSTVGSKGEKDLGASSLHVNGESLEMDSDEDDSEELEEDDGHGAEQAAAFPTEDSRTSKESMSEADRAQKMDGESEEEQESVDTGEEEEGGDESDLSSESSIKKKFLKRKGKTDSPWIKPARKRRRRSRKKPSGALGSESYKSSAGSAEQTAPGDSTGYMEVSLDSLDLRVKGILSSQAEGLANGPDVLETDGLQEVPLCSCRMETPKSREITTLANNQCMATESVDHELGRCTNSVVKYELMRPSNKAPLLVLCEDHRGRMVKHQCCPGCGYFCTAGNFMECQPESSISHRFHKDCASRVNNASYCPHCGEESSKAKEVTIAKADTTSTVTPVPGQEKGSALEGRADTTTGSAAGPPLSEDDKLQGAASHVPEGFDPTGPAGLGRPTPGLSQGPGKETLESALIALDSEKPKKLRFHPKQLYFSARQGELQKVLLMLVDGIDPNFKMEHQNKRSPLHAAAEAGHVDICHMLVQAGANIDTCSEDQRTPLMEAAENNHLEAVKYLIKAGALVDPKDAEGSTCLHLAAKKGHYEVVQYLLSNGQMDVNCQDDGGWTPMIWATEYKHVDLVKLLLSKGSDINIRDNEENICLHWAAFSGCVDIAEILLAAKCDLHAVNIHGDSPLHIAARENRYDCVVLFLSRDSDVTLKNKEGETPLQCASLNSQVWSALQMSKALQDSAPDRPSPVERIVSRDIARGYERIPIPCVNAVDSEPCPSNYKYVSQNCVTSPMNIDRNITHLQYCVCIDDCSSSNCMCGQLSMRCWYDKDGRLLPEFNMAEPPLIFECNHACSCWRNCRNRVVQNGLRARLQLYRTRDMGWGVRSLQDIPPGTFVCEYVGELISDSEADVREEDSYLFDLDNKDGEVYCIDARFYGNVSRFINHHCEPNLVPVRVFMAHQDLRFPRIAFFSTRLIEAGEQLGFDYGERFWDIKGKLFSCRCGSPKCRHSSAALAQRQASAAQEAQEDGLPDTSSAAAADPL

[2] = target: T2, Histone-lysine N-methyltransferase EHMT2 (Homo sapiens, UniProt Q96KQ7); assay: Inhibition G9a (unknown origin)
T2 sequence (Q96KQ7 whole entry): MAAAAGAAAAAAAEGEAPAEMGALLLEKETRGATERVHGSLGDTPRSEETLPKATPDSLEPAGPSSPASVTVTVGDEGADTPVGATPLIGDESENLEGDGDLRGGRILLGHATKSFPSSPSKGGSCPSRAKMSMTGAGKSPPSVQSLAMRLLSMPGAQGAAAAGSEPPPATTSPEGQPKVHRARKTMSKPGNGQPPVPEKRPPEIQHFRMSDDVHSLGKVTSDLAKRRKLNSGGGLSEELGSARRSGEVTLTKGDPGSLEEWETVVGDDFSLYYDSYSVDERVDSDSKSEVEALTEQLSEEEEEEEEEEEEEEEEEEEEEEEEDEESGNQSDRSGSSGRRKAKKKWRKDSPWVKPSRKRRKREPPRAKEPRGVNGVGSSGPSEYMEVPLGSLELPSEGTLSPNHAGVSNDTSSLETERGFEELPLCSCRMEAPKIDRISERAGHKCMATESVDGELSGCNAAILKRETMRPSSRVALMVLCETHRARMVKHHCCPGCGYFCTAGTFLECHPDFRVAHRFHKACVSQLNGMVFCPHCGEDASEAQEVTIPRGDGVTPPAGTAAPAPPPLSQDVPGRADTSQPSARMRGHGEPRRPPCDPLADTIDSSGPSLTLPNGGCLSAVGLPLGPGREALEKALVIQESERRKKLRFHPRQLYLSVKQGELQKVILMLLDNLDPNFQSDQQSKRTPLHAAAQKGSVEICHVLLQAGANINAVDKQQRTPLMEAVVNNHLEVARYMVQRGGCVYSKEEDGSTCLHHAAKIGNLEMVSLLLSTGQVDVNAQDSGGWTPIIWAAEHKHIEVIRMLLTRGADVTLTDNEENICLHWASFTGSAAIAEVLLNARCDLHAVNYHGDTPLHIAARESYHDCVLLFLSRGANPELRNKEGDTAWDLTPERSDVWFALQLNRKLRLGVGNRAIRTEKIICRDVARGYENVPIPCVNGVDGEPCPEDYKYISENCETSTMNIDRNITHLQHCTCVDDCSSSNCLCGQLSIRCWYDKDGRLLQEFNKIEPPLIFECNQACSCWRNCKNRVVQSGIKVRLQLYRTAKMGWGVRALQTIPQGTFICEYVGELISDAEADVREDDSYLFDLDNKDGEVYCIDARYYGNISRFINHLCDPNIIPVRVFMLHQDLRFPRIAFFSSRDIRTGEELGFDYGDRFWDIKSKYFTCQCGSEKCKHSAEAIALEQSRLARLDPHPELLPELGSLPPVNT

hERG (KCNH2) = hERG (KCNH2) (Homo sapiens, UniProt Q12809); assay: Inhibition of human ERG at 10 uM relative to control
[3] = AUC (0 to infinity) in mouse at 1 mg/kg, iv; format: ADME, organism-based; set-up: time infinity, route intravenous, dose 1 mg/kg; details: in vivo
[4] = Cmax in mouse at 10 mg/kg, po; format: ADME, organism-based; set-up: route oral, dose 10 mg/kg; details: in vivo
[5] = AUC (0 to infinity) in mouse at 10 mg/kg, po; format: ADME, organism-based; set-up: time infinity, route oral, dose 10 mg/kg; details: in vivo
[6] = Aqueous solubility of the compound in pH 6.8 JP2 fluid; format: physicochemical
[7] = Volume of distribution at steady state in mouse at 1 mg/kg, iv; format: ADME, organism-based; details: in vivo, read-out: Vdss
[8] = Intrinsic clearance in mouse at 1 mg/kg, iv; format: ADME, organism-based; details: in vivo
[9] = Metabolic stability in monkey liver microsomes assessed as compound remaining at 0.5 mg/mL incubated for 0.5 hrs; format: ADME, Macaca mulatta, Microsome; details: rhesus monkey, read-out: Stabilty
CYP3A4 = CYP3A4 (Homo sapiens, UniProt P08684); assay: Mechanism based inhibition of CYP3A4 in human liver microsome assessed as remaining percentage at 100 uM in presence of substrate ACN preincubated 30 mins followed by substrate addition relative to control; format: ADME; details: liver microsomes, probe ACN (so in the source), read-out: Activity
[10] = Oral bioavailability in mouse at 10 mg/kg; format: ADME, organism-based; details: in vivo
[11] = Metabolic stability in mouse liver microsomes assessed as compound remaining at 0.5 mg/mL incubated for 0.5 hrs; format: ADME, Microsome; details: read-out: Stabilty
[12] = Apparent permeability in MDCK cells; format: ADME, cell-based, Canis lupus familiaris; details: dog
[13] = Half-life in mouse at 1 mg/kg, iv; format: ADME, organism-based; details: in vivo
[14] = Lipophilicity, log D of compound; format: physicochemical; details: octanol/water
[15] = Tmax in mouse at 10 mg/kg, po; format: ADME, organism-based; details: in vivo
[16] = Initial plasma concentration in mouse at 1 mg/kg, iv; format: ADME, organism-based
[17] = Aqueous solubility of the compound in pH 1.2 JP1 fluid; format: physicochemical
[18] = Metabolic stability in human liver microsomes assessed as compound remaining at 0.5 mg/mL incubated for 0.5 hrs; format: ADME, Microsome; details: read-out: Stabilty
[19] = system: CD34-positive (myeloid/lymphoid) cell; assay: Induction of fetal globin in human CD34+ cells assessed as switching of mRAN expression from adult beta-globin to fetal type gamma globin at 0.3 to 1 uM by qRT-PCR analysis; format: functional, cell-based
[20] = system: CD34-positive (myeloid/lymphoid) cell; assay: Inhibition of G9a methyltransferase activity in human CD34+ cells assessed as induction of fetal type gamma globin at 1 uM in presence of erythropoietin measured after 21 days by staining based method; format: functional; details: time 21.0 day

Sequence of CYP3A4 (P08684 whole entry): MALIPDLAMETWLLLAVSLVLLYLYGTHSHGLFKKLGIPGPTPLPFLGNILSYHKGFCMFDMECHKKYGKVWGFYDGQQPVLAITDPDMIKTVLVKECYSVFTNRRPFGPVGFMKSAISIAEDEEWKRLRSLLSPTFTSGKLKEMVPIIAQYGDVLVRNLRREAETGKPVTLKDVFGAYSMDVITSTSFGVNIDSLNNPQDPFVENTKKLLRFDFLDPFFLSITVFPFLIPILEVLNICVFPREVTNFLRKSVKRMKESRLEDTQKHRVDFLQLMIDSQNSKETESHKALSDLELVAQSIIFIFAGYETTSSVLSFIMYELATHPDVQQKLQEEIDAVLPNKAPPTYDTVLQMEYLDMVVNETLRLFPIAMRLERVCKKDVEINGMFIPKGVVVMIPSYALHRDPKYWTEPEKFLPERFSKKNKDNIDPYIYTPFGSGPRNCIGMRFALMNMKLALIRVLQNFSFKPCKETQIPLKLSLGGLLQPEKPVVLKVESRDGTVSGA
Sequence of hERG (KCNH2) (Q12809 whole entry): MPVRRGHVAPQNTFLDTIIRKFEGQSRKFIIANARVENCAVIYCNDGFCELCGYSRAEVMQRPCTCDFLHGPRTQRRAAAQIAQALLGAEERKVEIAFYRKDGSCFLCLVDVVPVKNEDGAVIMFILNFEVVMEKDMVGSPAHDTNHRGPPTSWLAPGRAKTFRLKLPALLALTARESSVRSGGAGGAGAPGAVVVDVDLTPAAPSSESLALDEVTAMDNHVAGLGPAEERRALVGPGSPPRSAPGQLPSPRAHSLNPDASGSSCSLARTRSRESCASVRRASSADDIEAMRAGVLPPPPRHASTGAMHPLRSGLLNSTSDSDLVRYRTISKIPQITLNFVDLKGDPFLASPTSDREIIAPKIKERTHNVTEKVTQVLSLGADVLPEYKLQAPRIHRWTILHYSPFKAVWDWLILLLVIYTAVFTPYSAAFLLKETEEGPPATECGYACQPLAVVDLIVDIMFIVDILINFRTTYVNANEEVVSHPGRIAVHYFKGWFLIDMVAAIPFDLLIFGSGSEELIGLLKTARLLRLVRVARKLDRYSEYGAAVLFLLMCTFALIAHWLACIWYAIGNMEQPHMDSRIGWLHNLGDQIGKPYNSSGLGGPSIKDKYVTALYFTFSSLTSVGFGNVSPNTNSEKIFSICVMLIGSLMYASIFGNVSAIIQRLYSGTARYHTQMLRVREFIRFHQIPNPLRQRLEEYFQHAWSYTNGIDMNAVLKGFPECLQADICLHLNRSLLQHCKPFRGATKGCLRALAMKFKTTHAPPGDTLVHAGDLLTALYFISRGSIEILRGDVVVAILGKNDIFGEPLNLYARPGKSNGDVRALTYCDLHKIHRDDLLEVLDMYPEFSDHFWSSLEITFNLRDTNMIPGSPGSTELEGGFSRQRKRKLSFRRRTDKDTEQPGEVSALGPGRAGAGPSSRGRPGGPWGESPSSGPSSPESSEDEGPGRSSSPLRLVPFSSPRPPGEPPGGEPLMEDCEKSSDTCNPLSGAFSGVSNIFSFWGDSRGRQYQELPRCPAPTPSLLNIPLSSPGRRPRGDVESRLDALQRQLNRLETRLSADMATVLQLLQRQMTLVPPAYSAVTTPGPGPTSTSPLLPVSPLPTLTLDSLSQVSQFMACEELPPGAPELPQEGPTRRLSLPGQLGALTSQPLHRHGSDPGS

SMILES | IC50 [1] [nM] | IC50 [2] [nM] | also measured
CNc1cc(C)nc(Nc2ccc(OC)c(C3=CCN(C)C3)c2)n1 | 2770 | 1490 | –
CNc1cc(C)nc(Nc2ccc(OC)c(C3CCN(C)CC3)c2)n1 | – | 588 | –
CNc1cc(C)nc(Nc2ccc(OC)c(C3=CCN(C)CCC3)c2)n1 | 74.1 | – | inhibition at 10 µM (hERG (KCNH2)): 17%; AUC(0-inf) [3]: 1.2 µM·h; Cmax [4]: 210 nM; AUC(0-inf) [5]: 3.14 µM·h; solubility [6]: 360 µg/mL (≈ 1020 µM); Vd [7]: 14.9 L/kg; CL [8]: 38.7 mL/min/kg; remaining at 0.5 h [9]: 2%; activity at 30 min, 100 µM (CYP3A4): 87.3%; bioavailability [10]: 26%; remaining at 0.5 h [11]: 23%; Papp [12]: 8.4 ×10⁻⁶ cm/s; half-life [13]: 336 min; logD [14]: 1.3; Tmax [15]: 37.8 min; C0 [16]: 220 nM; solubility [17]: 710 µg/mL (≈ 2010 µM); remaining at 0.5 h [18]: 76%
CNc1cc(C)nc(Nc2ccc(OC)c(C3=CCNCC3)c2)n1 | 1160 | 225 | –
CNc1cc(C)nc(Nc2ccc(OC(F)(F)F)c(C3=CCNCCC3)c2)n1 | 3800 | 853 | –
COc1cc2c(cc1OCCCN1CCCC1)N=C(N)C21CCC1 | – | – | Activity [19]: Active
COc1cc2c(NC3CCN(C(C)C)CC3)nc(C3CCCCC3)nc2cc1OCCCN1CCCC1 | – | – | Activity [20]: Active
CNc1cc(C)nc(Nc2ccc(OC)c(C3=CCCN(C)C3)c2)n1 | 864 | 451 | –
CNc1cc(C)nc(Nc2ccc(OC)c(N3CCN(C)CC3)c2)n1 | – | > 5000 | –
CNc1cc(C)nc(Nc2ccc(OC)c(C3=CCN(C)CC3)c2)n1 | 277 | 92.9 | –

Further lines, with some results ahead:

IC50 [1] [nM] | IC50 [2] [nM] | SMILES | also measured
109 | 14.2 | CNc1cc(C)nc(Nc2ccc(C)c(C3=CCNCCC3)c2)n1 | –
14.7 | 3.25 | CNc1cc(C)nc(Nc2ccc(OC(F)F)c(C3=CCNCCC3)c2)n1 | –
27.1 | 6.32 | CNc1cc(C)nc(Nc2ccc(Cl)c(C3=CCNCCC3)c2)n1 | –
479 | 83.3 | CNc1cc(C)nc(Nc2ccc(OC)c(C3=CCCNCC3)c2)n1 | –
1590 | 213 | CNc1cc(C)nc(Nc2ccc(OC)c(C3=CCN(CCO)CCC3)c2)n1 | –
342 | 28.2 | CNc1cc(C)nc(Nc2ccc(OC)c(C3CCCNCC3)c2)n1 (racemic) | –
43.2 | 15.2 | CNc1cc(C)nc(Nc2ccc(C#N)c(C3=CCNCCC3)c2)n1 | –
1070 | 145 | CNc1cc(C)nc(Nc2ccc(OC)c(C3=CCN(C4CCC4)CCC3)c2)n1 | –
44.1 | 10.5 | CCN1CC=C(c2cc(Nc3nc(C)cc(NC)n3)ccc2OC)CCC1 | –
